Five compounds from patent US20150158868A1, “COMPOUNDS USEFUL AS INHIBITORS OF ATR KINASE” (Vertex Pharmaceuticals Incorporated, priority 2013, published 2015) can be followed below.

The term pKi denotes the negative decadic logarithm of the Ki, by convention in mol/L.

pKi: −log10 of the molar value. A value given as a limit tells only on which side of the number the result lay.

Assay [1] concerns HCT116 colorectal cancer cells. As to the kind of experiment: Cisplatin Sensitization Assay (96 h cell viability MTS). Type of assay: cell-based. The settings on record: concentration of compound required to reduce the IC50 of Cisplatin alone by at least 3-fold; HCT116, 96 h MTS. How it is done:
Compounds can be screened for their ability to sensitize HCT116 colorectal cancer cells to Cisplatin using a 96 h cell viability (MTS) assay. […] Compounds and Cisplatin are then both added simultaneously to the cell media in 2-fold serial dilutions from a top final concentration of 10 μM as a full matrix of concentrations in a final cell volume of 200 μl, and the cells are then incubated at 37° C. in 5% CO2. After 96 h, 40 μl of MTS reagent (Promega G358a) is added to each well and the cells are incubated for 1 h at 37° C. in 5% CO2. Finally, absorbance is measured at 490 nm using a SpectraMax Plus 384 reader (Molecular Devices) and the concentration of compound required to reduce the IC50 of Cisplatin alone by at least 3-fold (to 1 decimal place) can be reported.
Compounds with a Cisplatin sensitization value of <0.02 μM are marked with “+++.” Compounds with a Cisplatin sensitization value >0.02 μM but <0.2 μM are marked with “++.” Compounds with a Cisplatin sensitization value >0.2 μM but <5 μM are marked with “+.”

Assay [2] concerns the target T1, ATR kinase (full-length ATR) (Homo sapiens, UniProt Q13535).
T1 construct: Assays were carried out at 25° C. in the presence of 5 nM full-length ATR
The assay can be described thus: ATR Inhibition Assay (radioactive-phosphate incorporation). Type of assay: biochemical. Conditions: Ki(app); 5 nM full-length ATR, 10 μM ATP, 25° C. How it is done:
Compounds were screened for their ability to inhibit ATR kinase using a radioactive-phosphate incorporation assay. Assays were carried out in a mixture of 50 mM Tris/HCl (pH 7.5), 10 mM MgCl2 and 1 mM DTT. Final substrate concentrations were 10 μM [γ-33P]ATP (3 mCi 33P ATP/mmol ATP, Perkin Elmer) and 800 μM target peptide (ASELPASQPQPFSAKKK).
Assays were carried out at 25° C. in the presence of 5 nM full-length ATR. An assay stock buffer solution was prepared containing all of the reagents listed above, with the exception of ATP and the test compound of interest. 13.5 μL of the stock solution was placed in a 96 well plate followed by addition of 2 μL of DMSO stock containing serial dilutions of the test compound (typically starting from a final concentration of 15 μM with 3-fold serial dilutions) in duplicate (final DMSO concentration 7%). The plate was pre-incubated for 10 minutes at 25° C. and the reaction initiated by addition of 15 μL [γ-33P]ATP (final concentration 10 μM).
The reaction was stopped after 24 hours by the addition of 30 μL 0.1M phosphoric acid containing 2 mM ATP. A multiscreen phosphocellulose filter 96-well plate (Millipore, Cat no. MAPHN0B50) was pretreated with 100 μL 0.2M phosphoric acid prior to the addition of 45 μL of the stopped assay mixture. The plate was washed with 5×200PL 0.2M phosphoric acid. After drying, 100 μL Optiphase ‘SuperMix’ liquid scintillation cocktail (Perkin Elmer) was added to the well prior to scintillation counting (1450 Microbeta Liquid Scintillation Counter, Wallac).
After removing mean background values for all of the data points, Ki(app) data were calculated from non-linear regression analysis of the initial rate data using the Prism software package (GraphPad Prism version 3.0cx for Macintosh, GraphPad Software, San Diego Calif., USA).
Compounds with a Ki value of <0.01 μM are marked with “+++.” Compounds with a Ki value >0.01 μM but <1 μM are marked with “++.” Compounds with a Ki value >1 μM but <5 μM are marked with “+.”

Assay [3] deals with T2, ATR kinase, in the presence of partner proteins ATRIP, CLK2 and TopBP1 (Homo sapiens, UniProt Q13535).
T2 construct: in the presence of 4 nM full-length ATR, 40 nM full-length ATRIP
T2 sequence (Q13535 whole entry): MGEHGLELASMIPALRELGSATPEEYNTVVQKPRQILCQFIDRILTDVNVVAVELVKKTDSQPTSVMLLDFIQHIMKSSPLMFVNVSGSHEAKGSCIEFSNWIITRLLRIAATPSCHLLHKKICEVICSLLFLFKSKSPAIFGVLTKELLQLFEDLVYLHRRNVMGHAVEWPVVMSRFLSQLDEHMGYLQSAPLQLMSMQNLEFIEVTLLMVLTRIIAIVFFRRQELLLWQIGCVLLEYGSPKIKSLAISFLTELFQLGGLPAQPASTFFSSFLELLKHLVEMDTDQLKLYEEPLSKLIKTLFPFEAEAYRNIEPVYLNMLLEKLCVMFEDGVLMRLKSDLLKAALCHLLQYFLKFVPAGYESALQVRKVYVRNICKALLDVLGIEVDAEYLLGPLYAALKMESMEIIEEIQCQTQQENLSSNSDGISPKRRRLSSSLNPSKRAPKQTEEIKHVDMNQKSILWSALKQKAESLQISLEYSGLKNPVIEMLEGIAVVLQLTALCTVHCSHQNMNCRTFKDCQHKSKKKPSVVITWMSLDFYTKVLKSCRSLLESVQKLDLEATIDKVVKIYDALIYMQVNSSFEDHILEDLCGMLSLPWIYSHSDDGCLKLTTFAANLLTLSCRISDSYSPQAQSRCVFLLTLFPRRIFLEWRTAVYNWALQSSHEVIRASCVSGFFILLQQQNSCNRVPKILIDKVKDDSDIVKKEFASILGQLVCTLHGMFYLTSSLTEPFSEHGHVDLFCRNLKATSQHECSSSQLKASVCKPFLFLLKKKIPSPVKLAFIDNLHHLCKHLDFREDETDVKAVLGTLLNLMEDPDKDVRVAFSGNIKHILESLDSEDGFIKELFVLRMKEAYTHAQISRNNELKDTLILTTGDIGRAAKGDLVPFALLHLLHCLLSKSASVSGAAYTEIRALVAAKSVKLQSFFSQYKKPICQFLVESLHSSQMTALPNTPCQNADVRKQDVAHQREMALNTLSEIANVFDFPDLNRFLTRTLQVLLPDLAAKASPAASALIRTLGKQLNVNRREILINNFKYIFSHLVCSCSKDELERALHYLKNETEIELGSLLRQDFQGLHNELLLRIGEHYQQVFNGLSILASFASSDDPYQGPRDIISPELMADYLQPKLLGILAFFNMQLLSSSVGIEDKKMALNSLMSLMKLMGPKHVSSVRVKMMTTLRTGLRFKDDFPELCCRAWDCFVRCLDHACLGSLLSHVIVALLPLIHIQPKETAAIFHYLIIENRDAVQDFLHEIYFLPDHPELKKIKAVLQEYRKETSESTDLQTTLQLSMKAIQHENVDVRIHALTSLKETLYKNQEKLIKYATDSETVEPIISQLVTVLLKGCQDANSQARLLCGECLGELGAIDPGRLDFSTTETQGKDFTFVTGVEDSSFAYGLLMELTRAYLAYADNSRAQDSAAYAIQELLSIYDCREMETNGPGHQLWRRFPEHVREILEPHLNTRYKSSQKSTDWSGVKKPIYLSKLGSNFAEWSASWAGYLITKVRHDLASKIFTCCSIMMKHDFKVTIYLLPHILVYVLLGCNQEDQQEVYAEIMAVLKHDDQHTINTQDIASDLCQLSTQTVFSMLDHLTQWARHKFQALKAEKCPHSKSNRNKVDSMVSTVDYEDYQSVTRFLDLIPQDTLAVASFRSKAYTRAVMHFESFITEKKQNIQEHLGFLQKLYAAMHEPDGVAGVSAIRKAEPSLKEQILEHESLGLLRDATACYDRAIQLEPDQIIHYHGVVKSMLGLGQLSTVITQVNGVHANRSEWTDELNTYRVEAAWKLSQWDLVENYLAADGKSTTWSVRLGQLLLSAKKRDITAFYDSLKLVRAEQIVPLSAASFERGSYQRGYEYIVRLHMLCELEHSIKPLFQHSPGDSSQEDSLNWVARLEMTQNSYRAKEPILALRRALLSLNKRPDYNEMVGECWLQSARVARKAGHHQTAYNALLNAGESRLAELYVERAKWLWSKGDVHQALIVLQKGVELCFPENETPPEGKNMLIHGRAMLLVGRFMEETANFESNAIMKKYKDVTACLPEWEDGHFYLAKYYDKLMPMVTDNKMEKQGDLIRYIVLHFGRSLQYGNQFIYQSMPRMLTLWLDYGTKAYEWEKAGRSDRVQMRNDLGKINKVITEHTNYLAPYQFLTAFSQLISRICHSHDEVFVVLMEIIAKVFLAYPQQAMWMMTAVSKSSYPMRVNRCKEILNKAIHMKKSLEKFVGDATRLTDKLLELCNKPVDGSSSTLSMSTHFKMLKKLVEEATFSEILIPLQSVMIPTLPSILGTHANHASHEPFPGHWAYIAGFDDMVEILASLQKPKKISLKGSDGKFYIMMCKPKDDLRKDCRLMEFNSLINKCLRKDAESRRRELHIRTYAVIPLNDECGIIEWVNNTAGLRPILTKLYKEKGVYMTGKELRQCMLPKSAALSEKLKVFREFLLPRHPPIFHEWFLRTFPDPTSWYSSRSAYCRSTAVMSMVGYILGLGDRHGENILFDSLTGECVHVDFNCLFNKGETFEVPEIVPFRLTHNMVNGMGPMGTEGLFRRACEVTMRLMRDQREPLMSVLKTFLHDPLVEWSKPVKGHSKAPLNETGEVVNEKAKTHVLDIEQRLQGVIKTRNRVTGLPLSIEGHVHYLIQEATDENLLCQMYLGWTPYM
T2 sequence (Q8WXE1 whole entry partner): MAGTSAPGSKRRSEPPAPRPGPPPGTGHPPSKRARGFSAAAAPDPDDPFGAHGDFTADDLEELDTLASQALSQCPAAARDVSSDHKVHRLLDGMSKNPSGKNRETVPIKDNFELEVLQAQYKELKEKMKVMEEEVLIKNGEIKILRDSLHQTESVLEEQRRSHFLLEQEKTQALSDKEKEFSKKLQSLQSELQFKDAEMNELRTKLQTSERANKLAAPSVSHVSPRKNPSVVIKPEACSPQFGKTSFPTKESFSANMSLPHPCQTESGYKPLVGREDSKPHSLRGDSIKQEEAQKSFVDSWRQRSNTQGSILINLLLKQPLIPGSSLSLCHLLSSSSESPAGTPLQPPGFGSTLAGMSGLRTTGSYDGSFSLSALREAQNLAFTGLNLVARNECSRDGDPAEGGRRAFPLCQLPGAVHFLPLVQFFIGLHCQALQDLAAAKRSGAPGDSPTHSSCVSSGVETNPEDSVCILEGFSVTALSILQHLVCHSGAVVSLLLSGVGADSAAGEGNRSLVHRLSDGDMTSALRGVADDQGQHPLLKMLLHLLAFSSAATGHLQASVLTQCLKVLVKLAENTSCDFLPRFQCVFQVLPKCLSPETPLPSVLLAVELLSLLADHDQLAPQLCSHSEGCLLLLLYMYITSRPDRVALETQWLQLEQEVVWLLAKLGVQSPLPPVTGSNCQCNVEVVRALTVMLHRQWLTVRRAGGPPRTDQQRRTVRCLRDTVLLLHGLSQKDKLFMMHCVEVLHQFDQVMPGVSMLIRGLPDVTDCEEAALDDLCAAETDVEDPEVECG
T2 sequence (Q92547 978-1192 partner limits assumed): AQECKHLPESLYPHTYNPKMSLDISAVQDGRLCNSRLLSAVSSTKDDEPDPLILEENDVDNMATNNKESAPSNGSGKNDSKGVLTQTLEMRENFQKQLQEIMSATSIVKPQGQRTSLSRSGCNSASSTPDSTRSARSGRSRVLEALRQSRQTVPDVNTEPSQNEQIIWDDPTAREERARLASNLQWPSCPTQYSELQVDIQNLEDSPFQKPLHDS
The assay can be described thus: ATR-Complex Inhibition Assay (radioactive-phosphate incorporation). Conditions: Ki(app); 4 nM full-length ATR with ATRIP, CLK2 and TopBP1(A891-S1105), 10 μM ATP, 25° C. The assay is classed as biochemical. How it is done:
Compounds were screened for their ability to inhibit ATR kinase, in the presence of partner proteins ATRIP, CLK2 and TopBP1, using a radioactive-phosphate incorporation assay. Assays were carried out in a mixture of 50 mM Tris/HCl (pH 7.5), 10 mM MgCl2 and 1 mM DTT. Final substrate concentrations were 10 μM [g-33P]ATP (3.5 μCi 33P ATP/nmol ATP, Perkin Elmer, Massachusetts, USA) and 800 μM target peptide (ASELPASQPQPFSAKKK, Isca Biochemicals, Cambridgeshire, UK).
Assays were carried out at 25° C. in the presence of 4 nM full-length ATR, 40 nM full-length ATRIP, 40 nM full-length CLK2 and 600 nM TopBP1(A891-S1105). An enzyme stock buffer solution was prepared containing all of the reagents listed above, with the exception of target peptide, ATP and the test compound of interest. This enzyme stock was pre-incubated for 30 minutes at 25° C. 8.5 μL of the enzyme stock solution was placed in a 96-well plate followed by addition of 5 μl of target peptide and 2 μL of DMSO stock containing serial dilutions of the test compound (typically starting from a final concentration of 1.5 μM with 2.5-fold serial dilutions) in duplicate (final DMSO concentration 7%). The plate was pre-incubated for 10 minutes at 25° C. and the reaction initiated by addition of 15 μL [g-33P]ATP (final concentration 10 μM).
The reaction was stopped after […] by the addition of 30 μL 0.3 M phosphoric acid containing 2 mM ATP. A phosphocellulose filter 96-well plate (Multiscreen HTS MAPHNOB50, Merck-Millipore, Massachusetts, USA) was pretreated with 100 μL 0.1 M phosphoric acid prior to the addition of 45 μL of the stopped assay mixture. The plate was washed with 5×200 μL 0.1 M phosphoric acid. […]
After removing mean background values for all of the data points, Ki(app) data were calculated from non-linear regression analysis of the initial rate data using the Prism software package (GraphPad Prism version 6.0c for Macintosh, GraphPad Software Inc., San Diego, USA). […]

T1 sequence (Q13535 whole entry): as the sequence (Q13535 whole entry) above

Turning to `CN1CCN(C(=O)C2CCN(c3c(F)cncc3NC(=O)c3c(N)nc4cccnn34)CC2)CC1` [I-A-3, 2-amino-N-(5-fluoro-4-(4-(4-methylpiperazine-1-carbonyl)piperidin-1-yl)pyridin-3-yl)imidazo[1,2-b]pyridazine-3-carboxamide], the “Cisplatin Sensitization Assay” value in assay [1] is on record as “+++ (Compounds with a Cisplatin sensitization value of <0.02 μM)”. Besides, the pKi in assay [2] was 6.00 to 8.00.

As to `CN1CCC(Oc2ccncc2NC(=O)c2c(N)nc3ccc(C(F)(F)F)nn23)CC1` [I-A-2, 2-amino-N-(4-((1-methylpiperidin-4-yl)oxy)pyridin-3-yl)-6-(trifluoromethyl)imidazo[1,2-b]pyridazine-3-carboxamide], in assay [1], the “Cisplatin Sensitization Assay” value is given as “++ (Compounds with a Cisplatin sensitization value >0.02 μM but <0.2 μM)”. Besides, the negative logarithm of the Ki (pKi) in assay [2] was 6.00 to 8.00.

For `CN1CCC(Oc2ccncc2NC(=O)c2c(N)nc3cccnn23)CC1` [I-A-1, 2-amino-N-(4-((1-methylpiperidin-4-yl)oxy)pyridin-3-yl)imidazo[1,2-b]pyridazine-3-carboxamide], the pKi in assay [3] was above 8.00; in assay [2], 6.00 to 8.00. Further, the “Cisplatin Sensitization Assay” value in assay [1] was “++ (Compounds with a Cisplatin sensitization value >0.02 μM but <0.2 μM)”.

With `CN1CCN(C(=O)C2CCN(c3c(F)cncc3NC(=O)c3c(N)nn4ccccc34)CC2)CC1` [I-B-3, 2-amino-N-(5-fluoro-4-(4-(4-methylpiperazine-1-carbonyl)piperidin-1-yl)pyridin-3-yl)pyrazolo[1,5-a]pyridine-3-carboxamide], the pKi in assay [3] was above 8.00; in assay [2], 5.30 to 6.00. The “Cisplatin Sensitization Assay” value in assay [1] was “+ (Compounds with a Cisplatin sensitization value >0.2 μM but <5 μM)”.

For `CCOc1ccncc1NC(=O)c1c(N)nn2ccccc12` [I-B-1, 2-amino-N-(4-ethoxypyridin-3-yl)pyrazolo[1,5-a]pyridine-3-carboxamide], the pKi in assay [3] is above 8.00; in assay [2], 6.00 to 8.00. For the same compound, the “Cisplatin Sensitization Assay” value in assay [1] is “+++ (Compounds with a Cisplatin sensitization value of <0.02 μM)”.
